This is an account of results in ChEMBL document CHEMBL1201862, “PubChem BioAssay data set” (2004).

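Step 1: Grow cells in 96-well plates. Step 2: Expose to compound for 48 hours at 5 concentrations. Step 3: Interpolate endpoints linearly; if unreached, use highest concentration. GI50 is the concentration that inhibits growth by half.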 Activity calls are given as the source filed them. No stated cut-off is given here; in the data, active = GI50 up to about 1.1 µM and inactive = higher.

Among the test systems are SW-620; COLO 205; SN12C; NCI-H23; CAKI-1; OVCAR-4; ACHN; KM12; SK-MEL-5; PC-3; HT-29; MOLT-4; BT-549; HOP-62; 786-0; SK-MEL-2; EKVX; SF-268; U-251; LOX IMVI.
Assay in all cases: growth of human tumour cells (NCI), 48 h

Consider `Cc1[nH]nc(-c2ccon2)c1N=O`, for which the GI50 in the experiment on SW-620 was 21.2 µM (inactive); in the experiment on COLO 205, 19.9 µM (inactive); in the experiment on SN12C, 26.7 µM (inactive); with NCI-H23 it was 19.3 µM (inactive); with CAKI-1 it was 25.8 µM (inactive); in the experiment with OVCAR-4, 17.5 µM (inactive). For the same compound, the GI50 is 15 µM (inactive) in the experiment on ACHN; 21 µM (inactive) in the experiment on KM12; 18.2 µM (inactive) with SK-MEL-5; 25.3 µM (inactive) in the experiment with PC-3; 18.2 µM (inactive) in the experiment with HT-29; 2 µM (inactive) in the experiment on MOLT-4. Further, the GI50 in the experiment on BT-549 was 18.6 µM (inactive); with HOP-62 it was 21 µM (inactive); with 786-0, 20.4 µM (inactive); in the experiment with SK-MEL-2, 34.3 µM (inactive); in the experiment on EKVX, 16.7 µM (inactive); with SF-268, 20 µM (inactive). Moreover, the GI50 in the experiment on U-251 was 17.9 µM (inactive).
With `CC(C)OP(=O)(OC(C)C)c1ccc2c(c1)OCCOCCOCCOCCO2`, the GI50 in the experiment with SW-620 was > 100 µM (inactive); in the experiment on COLO 205, > 100 µM (inactive); with SN12C, > 100 µM (inactive); with NCI-H23 it was > 100 µM (inactive); in the experiment with LOX IMVI it was 95.7 µM (inactive); in the experiment on CAKI-1, > 100 µM (inactive). The GI50 with ACHN, with KM12, in the experiment on SK-MEL-5, in the experiment with PC-3, in the experiment with HT-29 and in the experiment on MOLT-4 was > 100 µM (inactive) each time. Also, the GI50 with BT-549, in the experiment on HOP-62, with 786-0, with EKVX and in the experiment with SF-268 was > 100 µM (inactive) throughout.
In the case of `O=C(O)CCC(=O)N1C/C(=C\c2ccccc2)C(=O)/C(=C/c2ccccc2)C1`, the GI50 with SW-620 is 1.58 µM (inactive); in the experiment on COLO 205 it was 3.47 µM (inactive); in the experiment with SN12C, 1.93 µM (inactive); with NCI-H23, 3.64 µM (inactive); in the experiment on LOX IMVI, 1.68 µM (inactive); in the experiment on CAKI-1 it was 4.71 µM (inactive). The GI50 in the experiment on OVCAR-4 was 2.3 µM (inactive); with ACHN it was 2.07 µM (inactive); in the experiment on KM12, 1.82 µM (inactive); in the experiment with SK-MEL-5, 2.65 µM (inactive); with HT-29 it was 2.23 µM (inactive); with MOLT-4, 2.34 µM (inactive). The GI50 in the experiment with HOP-62 is 16.8 µM (inactive); with 786-0, 2.52 µM (inactive); in the experiment with SK-MEL-2 it was 1.82 µM (inactive); in the experiment on EKVX, 5.02 µM (inactive); in the experiment on SF-268, 2.48 µM (inactive); in the experiment on U-251, 1.78 µM (inactive).
Regarding `COc1ccc(N2C(=O)c3c4c(c5c([nH]c6ncccc65)c3C2=O)CCC(C(C)(C)C)C4)cc1` (configuration not stated), the GI50 with SW-620 was > 100 µM (inactive); with COLO 205, > 100 µM (inactive); in the experiment on SN12C, > 100 µM (inactive); in the experiment on NCI-H23 it was 67 µM (inactive); in the experiment on OVCAR-4 it was > 100 µM (inactive); in the experiment on ACHN it was 40.6 µM (inactive). For the same compound, the GI50 is > 100 µM (inactive) in the experiment with KM12; > 100 µM (inactive) with SK-MEL-5; > 100 µM (inactive) with PC-3; > 100 µM (inactive) in the experiment on HT-29; > 10 µM (inactive) in the experiment on MOLT-4; 84.9 µM (inactive) with BT-549. In addition, the GI50 with HOP-62 is 38.6 µM (inactive); with 786-0 it was 35.6 µM (inactive); in the experiment on EKVX, > 100 µM (inactive); with SF-268, 72.6 µM (inactive); with U-251 it was 31 µM (inactive).
In the case of `CC(=O)N1OC(C)CC1Nc1ccc(Br)cc1` (configuration not stated), the GI50 was 0.76 µM (active) with SW-620; 20.8 µM (inactive) in the experiment on SN12C; > 100 µM (inactive) with NCI-H23; 0.415 µM (active) with ACHN; 1.44 µM (inactive) in the experiment with KM12; 6.31 µM (inactive) with SK-MEL-5. The GI50 in the experiment on PC-3 was 1.04 µM (active); in the experiment on HT-29 it was 75.9 µM (inactive); with MOLT-4 it was 0.971 µM (active); in the experiment on BT-549, 65.3 µM (inactive); in the experiment with HOP-62, 0.366 µM (active); in the experiment with 786-0 it was > 100 µM (inactive). For the same compound, the GI50 was 2.62 µM (inactive) in the experiment with SK-MEL-2, > 100 µM (inactive) in the experiment on EKVX, > 100 µM (inactive) in the experiment on SF-268 and 1.99 µM (inactive) in the experiment on U-251.
As to `N/C(S)=N/N=C/c1ccc(O)cn1`, the GI50 with SW-620 is 15.4 µM (inactive); in the experiment with SN12C, 5.35 µM (inactive); with NCI-H23 it was 6.11 µM (inactive); with LOX IMVI it was 5.13 µM (inactive); in the experiment on ACHN, 1.73 µM (inactive); in the experiment on KM12, 11.1 µM (inactive). Moreover, the GI50 is 5.65 µM (inactive) with SK-MEL-5; 7.1 µM (inactive) in the experiment on PC-3; 22.3 µM (inactive) with HT-29; 44.5 µM (inactive) in the experiment with BT-549; 4.59 µM (inactive) in the experiment on HOP-62; 14.5 µM (inactive) in the experiment with EKVX. In addition, the GI50 is 4.3 µM (inactive) in the experiment with SF-268 and 6.18 µM (inactive) in the experiment on U-251.
Regarding `CC(C)CCNC(=O)c1ccc(CNC(=O)/C=C/c2ccc(OCc3ccccc3)cc2)cc1`, the GI50 in the experiment with SW-620, with COLO 205, with SN12C, in the experiment with NCI-H23, in the experiment with LOX IMVI and with CAKI-1 was > 100 µM (inactive) each time. The GI50 in the experiment on OVCAR-4, in the experiment on ACHN, with KM12, in the experiment with SK-MEL-5, with PC-3 and with HT-29 was > 100 µM (inactive) throughout. Also, the GI50 with MOLT-4, in the experiment with HOP-62, in the experiment with 786-0, with SK-MEL-2, in the experiment with SF-268 and with U-251 was > 100 µM (inactive) throughout.
As for `CCOC(=O)/C(=N/Nc1ccccc1)N1C(=S)N(C)N=C(C)C=C1S`, the GI50 with SW-620 was > 100 µM (inactive); with COLO 205, > 100 µM (inactive); with SN12C, > 100 µM (inactive); in the experiment with NCI-H23 it was 33.9 µM (inactive); with CAKI-1 it was > 100 µM (inactive); in the experiment with OVCAR-4, > 100 µM (inactive). Besides, the GI50 was > 100 µM (inactive) with ACHN; > 100 µM (inactive) with KM12; > 100 µM (inactive) in the experiment with SK-MEL-5; > 100 µM (inactive) in the experiment on HT-29; > 100 µM (inactive) in the experiment with MOLT-4; 76.9 µM (inactive) in the experiment with BT-549. Also, the GI50 is > 100 µM (inactive) in the experiment with SK-MEL-2, > 100 µM (inactive) with EKVX, 6.82 µM (inactive) in the experiment with SF-268 and 20 µM (inactive) in the experiment with U-251.
For the compound `COc1cccc(Nc2nc(-c3cccs3)nc3ccc(Br)cc23)c1`, the GI50 in the experiment with SW-620 was > 100 µM (inactive); in the experiment with COLO 205, > 100 µM (inactive); with SN12C, > 100 µM (inactive); in the experiment on NCI-H23 it was 46 µM (inactive); in the experiment with LOX IMVI, > 100 µM (inactive); in the experiment with CAKI-1, 33.7 µM (inactive). Besides, the GI50 is > 100 µM (inactive) in the experiment with ACHN; 74 µM (inactive) in the experiment on KM12; 55.5 µM (inactive) with SK-MEL-5; 27.4 µM (inactive) with PC-3; > 100 µM (inactive) in the experiment with HT-29; > 100 µM (inactive) with BT-549. Besides, the GI50 with HOP-62 was 20 µM (inactive); in the experiment with 786-0, 33.3 µM (inactive); in the experiment with SK-MEL-2, > 100 µM (inactive); in the experiment on EKVX it was > 100 µM (inactive); in the experiment with SF-268, 41.8 µM (inactive); in the experiment with U-251, 35.5 µM (inactive).
As for `OC(c1ccoc1)c1cc2ccccc2s1` (configuration not stated), the GI50 in the experiment with SW-620, with COLO 205, in the experiment with SN12C, in the experiment on NCI-H23, with LOX IMVI and in the experiment with CAKI-1 was > 10 µM (inactive) in each case. The GI50 in the experiment with OVCAR-4, in the experiment on ACHN, in the experiment with KM12, in the experiment with SK-MEL-5, in the experiment with PC-3 and in the experiment on HT-29 was > 10 µM (inactive) in each case. The GI50 with MOLT-4, with HOP-62, in the experiment with 786-0, in the experiment with SK-MEL-2, with EKVX and in the experiment with SF-268 was > 10 µM (inactive) in each case. In addition, in the experiment with U-251, the GI50 was > 10 µM (inactive).
In the case of `c1ccc(C(NCC2CCO2)(c2ccccc2)c2ccccc2)cc1` (configuration not stated), the GI50 with SW-620 is 19.3 µM (inactive); in the experiment with COLO 205, 39.1 µM (inactive); in the experiment with SN12C, 22.8 µM (inactive); with NCI-H23 it was 16.3 µM (inactive); in the experiment with LOX IMVI it was 28.6 µM (inactive); in the experiment on CAKI-1, 23.9 µM (inactive). For the same compound, the GI50 was 16.2 µM (inactive) with OVCAR-4; 15.7 µM (inactive) with ACHN; 15 µM (inactive) in the experiment on KM12; 25.6 µM (inactive) in the experiment with SK-MEL-5; 15.8 µM (inactive) in the experiment on PC-3; 30.2 µM (inactive) in the experiment on MOLT-4. Moreover, the GI50 was 22.3 µM (inactive) in the experiment on BT-549; 20 µM (inactive) in the experiment with 786-0; 21.1 µM (inactive) in the experiment on SK-MEL-2; 16.2 µM (inactive) in the experiment with EKVX; 23 µM (inactive) in the experiment with U-251.
On to `CCCCOC(=O)NC(Nc1ccc(S(N)(=O)=O)cc1)(C(F)(F)F)C(F)(F)F`, for which the GI50 with SN12C, in the experiment on NCI-H23, in the experiment with LOX IMVI, in the experiment on ACHN, in the experiment on KM12 and in the experiment with HT-29 was > 100 µM (inactive) throughout. Besides, the GI50 in the experiment with MOLT-4, in the experiment on BT-549, with HOP-62, in the experiment with SK-MEL-2, in the experiment on EKVX and with SF-268 was > 100 µM (inactive) in each case. Further, the GI50 in the experiment with U-251 is > 100 µM (inactive).
